# Tests used:
# [1] = molecular target: Voltage-dependent L-type calcium channel subunit alpha-1C (Homo sapiens, UniProt Q13936); format: functional, cell-based
# [2] = molecular target: Hydroxycarboxylic acid receptor 2 (Homo sapiens, UniProt Q8TDS4)
# [3] = molecular target: T1, Alpha-2A adrenergic receptor (Homo sapiens, UniProt P08913)
# T1 sequence (P08913 whole entry): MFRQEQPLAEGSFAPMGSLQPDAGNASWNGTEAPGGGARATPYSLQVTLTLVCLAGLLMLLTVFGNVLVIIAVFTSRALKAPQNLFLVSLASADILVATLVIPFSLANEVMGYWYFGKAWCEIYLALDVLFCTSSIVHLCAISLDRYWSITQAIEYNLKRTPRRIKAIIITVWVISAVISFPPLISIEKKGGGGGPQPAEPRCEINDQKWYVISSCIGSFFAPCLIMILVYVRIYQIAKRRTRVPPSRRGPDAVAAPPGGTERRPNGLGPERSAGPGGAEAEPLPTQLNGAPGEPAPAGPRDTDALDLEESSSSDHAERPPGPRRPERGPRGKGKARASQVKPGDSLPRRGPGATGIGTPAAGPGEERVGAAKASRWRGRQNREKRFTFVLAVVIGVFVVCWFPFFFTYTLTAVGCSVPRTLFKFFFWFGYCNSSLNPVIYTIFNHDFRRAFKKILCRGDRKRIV
# [4] = molecular target: 5-hydroxytryptamine receptor 7 (Homo sapiens, UniProt P34969)
# [5] = molecular target: 5-hydroxytryptamine receptor 6 (Homo sapiens, UniProt P50406)
# Cannabinoid receptor 1 = Cannabinoid receptor 1 (Homo sapiens, UniProt P21554); format: functional
# Sequence of Cannabinoid receptor 1 (P21554 whole entry): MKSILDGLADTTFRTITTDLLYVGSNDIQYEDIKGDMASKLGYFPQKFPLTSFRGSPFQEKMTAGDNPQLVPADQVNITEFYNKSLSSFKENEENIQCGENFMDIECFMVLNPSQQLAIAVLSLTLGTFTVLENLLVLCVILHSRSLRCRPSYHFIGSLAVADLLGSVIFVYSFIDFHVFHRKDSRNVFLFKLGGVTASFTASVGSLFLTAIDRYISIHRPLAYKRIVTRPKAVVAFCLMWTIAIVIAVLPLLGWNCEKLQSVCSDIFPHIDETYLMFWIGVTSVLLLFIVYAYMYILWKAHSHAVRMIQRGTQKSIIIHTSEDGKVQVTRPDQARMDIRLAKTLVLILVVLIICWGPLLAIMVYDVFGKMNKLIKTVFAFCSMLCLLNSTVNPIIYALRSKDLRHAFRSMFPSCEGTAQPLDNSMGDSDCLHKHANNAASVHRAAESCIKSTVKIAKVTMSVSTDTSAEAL
# [6] = molecular target: T2, Alpha-1A adrenergic receptor (Homo sapiens, UniProt P35348)
# T2 sequence (P35348 whole entry): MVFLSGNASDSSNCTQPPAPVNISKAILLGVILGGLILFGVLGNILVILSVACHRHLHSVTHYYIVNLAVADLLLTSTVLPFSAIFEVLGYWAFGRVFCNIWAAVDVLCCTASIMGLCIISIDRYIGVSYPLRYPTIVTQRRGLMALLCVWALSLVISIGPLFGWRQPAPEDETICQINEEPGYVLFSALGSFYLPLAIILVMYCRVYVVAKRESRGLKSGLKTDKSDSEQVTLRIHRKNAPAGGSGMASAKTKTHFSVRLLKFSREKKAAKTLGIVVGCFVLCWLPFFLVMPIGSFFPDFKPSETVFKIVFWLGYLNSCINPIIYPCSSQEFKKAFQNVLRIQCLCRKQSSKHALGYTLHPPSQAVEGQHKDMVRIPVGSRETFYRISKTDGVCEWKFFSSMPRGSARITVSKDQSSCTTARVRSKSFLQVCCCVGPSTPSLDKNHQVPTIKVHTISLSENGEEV
# D(1A) dopamine receptor = D(1A) dopamine receptor (Homo sapiens, UniProt P21728)
# Sequence of D(1A) dopamine receptor (P21728 whole entry): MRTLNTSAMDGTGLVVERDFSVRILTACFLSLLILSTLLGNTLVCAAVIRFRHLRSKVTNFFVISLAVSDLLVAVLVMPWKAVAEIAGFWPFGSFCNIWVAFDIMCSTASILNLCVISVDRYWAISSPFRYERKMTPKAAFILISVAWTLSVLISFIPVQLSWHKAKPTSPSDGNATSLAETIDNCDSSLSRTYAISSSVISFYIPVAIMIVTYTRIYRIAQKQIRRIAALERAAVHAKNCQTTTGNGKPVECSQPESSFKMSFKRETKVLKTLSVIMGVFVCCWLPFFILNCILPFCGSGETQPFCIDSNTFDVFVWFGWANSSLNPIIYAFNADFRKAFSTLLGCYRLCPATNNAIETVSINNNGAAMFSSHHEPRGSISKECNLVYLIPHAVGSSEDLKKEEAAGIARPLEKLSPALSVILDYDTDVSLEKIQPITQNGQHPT
# [7] = molecular target: T3, Muscarinic acetylcholine receptor M2 (Homo sapiens, UniProt P08172)
# T3 sequence (P08172 whole entry): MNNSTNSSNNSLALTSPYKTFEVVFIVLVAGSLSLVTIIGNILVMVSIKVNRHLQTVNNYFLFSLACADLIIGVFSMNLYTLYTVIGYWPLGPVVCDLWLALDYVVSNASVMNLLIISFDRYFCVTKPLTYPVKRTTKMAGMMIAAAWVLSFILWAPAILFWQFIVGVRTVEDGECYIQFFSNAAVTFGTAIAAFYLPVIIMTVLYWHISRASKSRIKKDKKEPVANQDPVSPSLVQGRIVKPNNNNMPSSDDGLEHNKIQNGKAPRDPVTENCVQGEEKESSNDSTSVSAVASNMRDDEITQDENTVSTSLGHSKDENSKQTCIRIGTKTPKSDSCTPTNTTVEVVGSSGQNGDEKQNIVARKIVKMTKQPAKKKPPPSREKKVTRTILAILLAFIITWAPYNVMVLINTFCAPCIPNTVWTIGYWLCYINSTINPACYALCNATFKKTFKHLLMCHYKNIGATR
# [8] = molecular target: Gamma-aminobutyric acid type B receptor subunit 1 (Homo sapiens, UniProt Q9UBS5)
# Sequence of Gamma-aminobutyric acid type B receptor subunit 1 (Q9UBS5 whole entry): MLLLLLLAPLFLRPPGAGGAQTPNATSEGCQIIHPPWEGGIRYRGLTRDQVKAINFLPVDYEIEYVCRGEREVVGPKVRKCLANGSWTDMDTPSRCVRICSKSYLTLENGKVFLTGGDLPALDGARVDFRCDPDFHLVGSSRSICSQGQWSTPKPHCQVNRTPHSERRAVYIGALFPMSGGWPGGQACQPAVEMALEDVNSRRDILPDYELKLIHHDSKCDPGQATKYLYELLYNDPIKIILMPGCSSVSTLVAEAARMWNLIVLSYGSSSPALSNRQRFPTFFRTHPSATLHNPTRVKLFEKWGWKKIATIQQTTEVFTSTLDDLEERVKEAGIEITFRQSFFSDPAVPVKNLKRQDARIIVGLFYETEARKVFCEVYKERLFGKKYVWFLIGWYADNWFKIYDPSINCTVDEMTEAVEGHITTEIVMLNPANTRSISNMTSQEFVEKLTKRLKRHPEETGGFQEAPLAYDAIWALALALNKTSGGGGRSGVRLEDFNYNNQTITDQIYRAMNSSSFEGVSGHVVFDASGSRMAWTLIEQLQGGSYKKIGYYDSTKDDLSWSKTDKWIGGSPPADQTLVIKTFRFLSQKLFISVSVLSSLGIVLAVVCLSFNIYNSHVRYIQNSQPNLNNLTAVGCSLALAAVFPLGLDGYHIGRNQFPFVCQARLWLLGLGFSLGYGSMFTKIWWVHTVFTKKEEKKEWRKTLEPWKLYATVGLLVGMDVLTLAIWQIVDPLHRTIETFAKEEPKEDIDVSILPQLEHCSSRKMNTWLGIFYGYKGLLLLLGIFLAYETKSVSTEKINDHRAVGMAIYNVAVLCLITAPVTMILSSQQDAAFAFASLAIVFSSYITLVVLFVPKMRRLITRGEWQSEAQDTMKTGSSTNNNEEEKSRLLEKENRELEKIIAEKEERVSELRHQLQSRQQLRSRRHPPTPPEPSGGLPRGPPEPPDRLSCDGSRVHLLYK
# [9] = molecular target: 5-hydroxytryptamine receptor 2A (Homo sapiens, UniProt P28223)
# Histamine H1 receptor [10] = molecular target: T4, Histamine H1 receptor (Homo sapiens, UniProt P35367); format: functional, cell-based
# T4 sequence (P35367 whole entry): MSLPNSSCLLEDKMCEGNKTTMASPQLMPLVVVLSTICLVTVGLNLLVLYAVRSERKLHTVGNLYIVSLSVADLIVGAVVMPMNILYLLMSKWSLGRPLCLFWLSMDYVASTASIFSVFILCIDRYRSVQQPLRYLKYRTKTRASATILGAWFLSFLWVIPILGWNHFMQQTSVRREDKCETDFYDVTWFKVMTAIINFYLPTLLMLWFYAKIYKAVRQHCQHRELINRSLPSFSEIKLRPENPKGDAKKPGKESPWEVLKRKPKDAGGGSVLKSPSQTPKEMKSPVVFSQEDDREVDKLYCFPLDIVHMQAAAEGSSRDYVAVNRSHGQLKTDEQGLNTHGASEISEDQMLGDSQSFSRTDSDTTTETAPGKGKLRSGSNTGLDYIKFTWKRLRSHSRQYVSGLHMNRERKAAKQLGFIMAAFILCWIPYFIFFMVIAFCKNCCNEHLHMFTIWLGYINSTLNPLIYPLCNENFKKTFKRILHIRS
# [11] = molecular target: T2, Alpha-1A adrenergic receptor; remark: listed apart in the source
# Histamine H1 receptor [12] = molecular target: T4, Histamine H1 receptor; format: functional, cell-based; remark: listed apart in the source
# Androgen receptor = molecular target: T5, Androgen receptor (Rattus norvegicus, UniProt P15207); format: functional
# T5 sequence (P15207 whole entry): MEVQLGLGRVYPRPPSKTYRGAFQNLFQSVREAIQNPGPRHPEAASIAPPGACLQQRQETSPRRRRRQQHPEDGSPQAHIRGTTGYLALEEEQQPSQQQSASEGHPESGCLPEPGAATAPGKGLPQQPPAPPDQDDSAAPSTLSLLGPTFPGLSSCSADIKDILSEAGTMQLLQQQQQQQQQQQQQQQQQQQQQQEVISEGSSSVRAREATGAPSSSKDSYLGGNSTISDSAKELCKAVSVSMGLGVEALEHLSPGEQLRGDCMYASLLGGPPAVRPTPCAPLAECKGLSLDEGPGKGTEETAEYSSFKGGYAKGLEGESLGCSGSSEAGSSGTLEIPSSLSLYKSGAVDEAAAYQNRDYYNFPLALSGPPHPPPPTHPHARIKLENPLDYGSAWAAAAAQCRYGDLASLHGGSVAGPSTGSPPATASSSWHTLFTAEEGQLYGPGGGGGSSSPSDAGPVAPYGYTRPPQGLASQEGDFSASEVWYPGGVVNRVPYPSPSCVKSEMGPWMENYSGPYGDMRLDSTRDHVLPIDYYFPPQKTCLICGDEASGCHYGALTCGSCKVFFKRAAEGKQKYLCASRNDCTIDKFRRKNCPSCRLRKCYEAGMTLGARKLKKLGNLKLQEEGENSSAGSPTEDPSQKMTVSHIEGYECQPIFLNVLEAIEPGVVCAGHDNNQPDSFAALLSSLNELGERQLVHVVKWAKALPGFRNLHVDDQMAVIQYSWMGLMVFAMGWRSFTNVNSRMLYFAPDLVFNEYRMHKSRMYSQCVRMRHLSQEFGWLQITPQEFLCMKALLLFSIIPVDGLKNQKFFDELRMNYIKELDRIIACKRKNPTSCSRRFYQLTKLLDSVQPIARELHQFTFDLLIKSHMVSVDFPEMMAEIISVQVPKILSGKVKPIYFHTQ
# Note: assay procedure not described here.
# Sequence of Voltage-dependent L-type calcium channel subunit alpha-1C (Q13936 whole entry): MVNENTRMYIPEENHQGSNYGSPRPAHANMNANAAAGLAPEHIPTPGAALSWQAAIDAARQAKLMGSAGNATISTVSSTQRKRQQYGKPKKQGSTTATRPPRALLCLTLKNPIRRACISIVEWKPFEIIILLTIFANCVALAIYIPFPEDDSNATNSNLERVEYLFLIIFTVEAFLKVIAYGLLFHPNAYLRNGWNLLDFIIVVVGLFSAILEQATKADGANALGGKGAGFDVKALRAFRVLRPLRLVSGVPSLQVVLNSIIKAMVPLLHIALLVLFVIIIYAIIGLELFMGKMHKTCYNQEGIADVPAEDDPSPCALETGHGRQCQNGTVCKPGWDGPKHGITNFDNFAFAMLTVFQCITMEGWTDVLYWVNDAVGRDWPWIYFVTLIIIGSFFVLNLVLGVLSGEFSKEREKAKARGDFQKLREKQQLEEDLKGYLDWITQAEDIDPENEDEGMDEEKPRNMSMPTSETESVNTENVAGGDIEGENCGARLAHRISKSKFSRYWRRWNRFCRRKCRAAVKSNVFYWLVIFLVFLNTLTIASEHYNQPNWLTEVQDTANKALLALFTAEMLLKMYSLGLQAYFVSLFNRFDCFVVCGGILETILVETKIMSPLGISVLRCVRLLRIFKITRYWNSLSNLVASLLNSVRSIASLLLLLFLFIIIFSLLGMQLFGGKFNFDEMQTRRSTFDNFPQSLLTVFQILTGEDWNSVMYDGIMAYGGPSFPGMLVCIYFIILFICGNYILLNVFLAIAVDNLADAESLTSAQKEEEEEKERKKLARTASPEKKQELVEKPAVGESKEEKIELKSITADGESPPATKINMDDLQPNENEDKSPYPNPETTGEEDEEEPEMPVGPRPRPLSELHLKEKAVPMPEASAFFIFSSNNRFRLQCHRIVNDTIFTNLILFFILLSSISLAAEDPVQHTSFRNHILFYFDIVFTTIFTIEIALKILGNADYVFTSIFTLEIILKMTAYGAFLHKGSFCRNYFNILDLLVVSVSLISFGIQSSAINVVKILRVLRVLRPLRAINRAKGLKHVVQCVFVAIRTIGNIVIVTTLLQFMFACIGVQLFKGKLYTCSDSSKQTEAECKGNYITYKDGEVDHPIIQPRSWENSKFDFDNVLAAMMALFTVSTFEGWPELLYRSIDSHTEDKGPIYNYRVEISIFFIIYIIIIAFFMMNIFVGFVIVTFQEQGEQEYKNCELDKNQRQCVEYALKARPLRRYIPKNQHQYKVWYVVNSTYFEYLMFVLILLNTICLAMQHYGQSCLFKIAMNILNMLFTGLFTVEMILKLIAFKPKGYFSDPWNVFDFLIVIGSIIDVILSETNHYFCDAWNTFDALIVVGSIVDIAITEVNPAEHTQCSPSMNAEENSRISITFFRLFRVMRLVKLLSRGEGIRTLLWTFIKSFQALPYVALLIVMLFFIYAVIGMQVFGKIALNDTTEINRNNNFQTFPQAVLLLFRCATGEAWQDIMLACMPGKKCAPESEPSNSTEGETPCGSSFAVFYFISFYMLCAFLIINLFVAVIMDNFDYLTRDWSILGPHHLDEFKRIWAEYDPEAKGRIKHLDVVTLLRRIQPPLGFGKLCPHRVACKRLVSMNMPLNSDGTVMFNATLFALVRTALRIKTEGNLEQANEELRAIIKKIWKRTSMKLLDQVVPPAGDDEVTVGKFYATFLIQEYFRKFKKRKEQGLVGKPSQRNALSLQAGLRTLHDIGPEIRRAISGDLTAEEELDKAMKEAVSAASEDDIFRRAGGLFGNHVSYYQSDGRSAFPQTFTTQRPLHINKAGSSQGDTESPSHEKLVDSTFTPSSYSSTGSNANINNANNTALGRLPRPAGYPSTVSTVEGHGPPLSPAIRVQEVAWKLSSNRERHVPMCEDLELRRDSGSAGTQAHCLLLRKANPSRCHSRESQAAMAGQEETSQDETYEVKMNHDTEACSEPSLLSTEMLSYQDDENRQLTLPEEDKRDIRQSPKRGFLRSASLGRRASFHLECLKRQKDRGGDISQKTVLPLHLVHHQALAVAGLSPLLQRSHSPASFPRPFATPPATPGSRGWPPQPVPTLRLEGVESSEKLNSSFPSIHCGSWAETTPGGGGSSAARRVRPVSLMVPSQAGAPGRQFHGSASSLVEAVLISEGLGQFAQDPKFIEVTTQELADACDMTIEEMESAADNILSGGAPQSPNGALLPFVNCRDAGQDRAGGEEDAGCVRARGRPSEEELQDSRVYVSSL
# Sequence of Hydroxycarboxylic acid receptor 2 (Q8TDS4 whole entry): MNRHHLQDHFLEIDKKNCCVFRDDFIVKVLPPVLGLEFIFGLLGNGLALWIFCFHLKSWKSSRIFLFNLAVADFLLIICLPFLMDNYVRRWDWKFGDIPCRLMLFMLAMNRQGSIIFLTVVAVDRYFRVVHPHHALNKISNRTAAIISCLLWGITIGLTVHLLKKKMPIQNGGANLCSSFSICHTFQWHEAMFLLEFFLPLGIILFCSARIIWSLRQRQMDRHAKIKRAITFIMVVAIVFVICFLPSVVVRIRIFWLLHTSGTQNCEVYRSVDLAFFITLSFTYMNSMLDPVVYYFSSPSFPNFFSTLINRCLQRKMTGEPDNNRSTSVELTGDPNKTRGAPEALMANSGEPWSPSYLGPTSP
smiles,measurement,setting,value
CN(C)CCC=C1c2ccccc2CCc2ccccc21 [AMITRIPTYLINE],AC50,[1],32 µM
same,AC50,[2],> 10 µM
NCC1(CC(=O)O)CCCCC1 [GABAPENTIN],AC50,[3],> 30 µM
same,AC50,[4],> 10 µM
same,AC50,[5],> 10 µM
same,AC50,Cannabinoid receptor 1,> 10 µM
same,AC50,[6],> 10 µM
same,AC50,D(1A) dopamine receptor,> 30 µM
same,AC50,[7],> 30 µM
same,AC50,[8],> 10 µM
CCOc1ccccc1OCCN[C@H](C)Cc1ccc(OC)c(S(N)(=O)=O)c1 [TAMSULOSIN],AC50,[3],0.79 µM
same,AC50,[9],14.4 µM
C#CCN(C)Cc1ccccc1 [PARGYLINE],AC50,Histamine H1 receptor [10],> 30 µM
same,AC50,[11],> 30 µM
same,AC50,Histamine H1 receptor [12],> 30 µM
CN(C)CCCC1(c2ccc(F)cc2)OCc2cc(C#N)ccc21 (configuration not stated) [CITALOPRAM],AC50,[2],> 10 µM
N#Cc1ccnc(N2C(=O)CC[C@H]2C(=O)N(c2cncc(F)c2)[C@H](C(=O)NC2CC(F)(F)C2)c2ccccc2Cl)c1 [IVOSIDENIB],AC50,[1],> 50 µM
C[C@]12CCC(=O)C=C1CC[C@H]1[C@@H]3CC[C@](O)(C(=O)CO)[C@@]3(C)C[C@H](O)[C@@]12F [FLUDROCORTISONE],AC50,[9],> 10 µM
C=CC1=C(C(=O)O)N2C(=O)[C@@H](NC(=O)/C(=N\O)c3csc(N)n3)[C@H]2SC1,AC50,[9],> 10 µM
CCOC(=O)[C@H](CCc1ccccc1)N[C@@H](C)C(=O)N1Cc2ccccc2C[C@H]1C(=O)O,AC50,[4],> 10 µM
same,AC50,[5],> 10 µM
same,AC50,Cannabinoid receptor 1,> 10 µM
same,AC50,[6],> 10 µM
same,AC50,[8],> 10 µM
CC(=O)Oc1ccccc1C(=O)O [ASPIRIN],AC50,[3],> 30 µM
same,AC50,[4],> 10 µM
same,AC50,[5],> 10 µM
same,AC50,Cannabinoid receptor 1,> 10 µM
same,AC50,[6],> 10 µM
same,AC50,D(1A) dopamine receptor,> 30 µM
same,AC50,[7],> 30 µM
same,AC50,[8],> 10 µM
C[C@H](Nc1ncnc2[nH]cnc12)c1cc2cccc(Cl)c2c(=O)n1-c1ccccc1 [DUVELISIB],AC50,[11],> 30 µM
same,AC50,Androgen receptor,> 30 µM
CC#CC(=O)N1CCC[C@H]1c1nc(-c2ccc(C(=O)Nc3ccccn3)cc2)c2c(N)nccn12 [ACALABRUTINIB],AC50,[11],> 30 µM
same,AC50,[7],> 30 µM
CC(=O)SCC(Cc1ccccc1)C(=O)NCC(=O)OCc1ccccc1 (configuration not stated) [RACECADOTRIL],AC50,[9],> 10 µM
CN(C)CCc1c[nH]c2ccc(CS(=O)(=O)N3CCCC3)cc12 [ALMOTRIPTAN],AC50,Histamine H1 receptor [10],> 30 µM
same,AC50,Histamine H1 receptor [12],> 30 µM
CC(C)(CO)c1cc2cc(NC(=O)C3(c4ccc5c(c4)OC(F)(F)O5)CC3)c(F)cc2n1C[C@@H](O)CO [TEZACAFTOR],AC50,Androgen receptor,> 30 µM
CC(=O)NC[C@H]1CN(c2ccc(N3CCOCC3)c(F)c2)C(=O)O1 [LINEZOLID],AC50,[1],> 50 µM
CCN(CC)CCn1c(=O)c(Cc2ccc(OC)cc2)nc2ccccc21 [CAROVERINE],AC50,Androgen receptor,> 30 µM
Cc1c(C)c2c(c(C)c1O)CCC(C)(COc1ccc(CC3SC(=O)NC3=O)cc1)O2 (configuration not stated) [TROGLITAZONE],AC50,Androgen receptor,> 30 µM
same,AC50,[8],> 10 µM
CCCCCCO[C@@H](C)c1cccc(-c2csc(NC(=O)c3cc(Cl)c(/C=C(\C)C(=O)O)c(Cl)c3)n2)c1OC [LUSUTROMBOPAG],AC50,[11],> 30 µM
O=C1[C@@H]2[C@H]3CC[C@H](C3)[C@@H]2C(=O)N1C[C@@H]1CCCC[C@H]1CN1CCN(c2nsc3ccccc23)CC1 [LURASIDONE],AC50,Androgen receptor,5.7 µM
O=C(Cc1cccs1)N[C@@H]1C(=O)N2C(C(=O)[O-])=C(C[n+]3ccccc3)CS[C@H]12 [CEPHALORIDINE],AC50,[11],> 30 µM
CN1CC2c3ccccc3Oc3ccc(Cl)cc3C2C1 (configuration not stated) [ASENAPINE],AC50,[3],0.0137 µM
same,AC50,D(1A) dopamine receptor,0.01 µM
Cn1cnc2c(F)c(Nc3ccc(Br)cc3F)c(C(=O)NOCCO)cc21 [BINIMETINIB],AC50,[1],> 50 µM
same,AC50,Androgen receptor,> 30 µM
O=C(O)[C@@H](S)[C@@H](S)C(=O)O,AC50,[11],> 30 µM
OCCOCCN1CCN(C(c2ccccc2)c2ccc(Cl)cc2)CC1 (configuration not stated) [HYDROXYZINE],AC50,[4],6.8 µM
same,AC50,[5],2.2 µM
same,AC50,Histamine H1 receptor [10],> 30 µM
same,AC50,[6],0.546 µM
same,AC50,[9],0.146 µM
same,AC50,Histamine H1 receptor [12],0.45 µM
same,AC50,[2],> 10 µM
Nc1nnc(-c2cccc(Cl)c2Cl)c(N)n1 [LAMOTRIGINE],AC50,[6],11.1 µM
same,AC50,[1],> 50 µM
same,AC50,[2],> 10 µM

# From ChEMBL document CHEMBL5291721, “A preclinical secondary pharmacology resource illuminates target-adverse drug reaction associations of marketed drugs” (Nat Commun, 2023)
